For orientation: EC50 means the concentration needed to bring the measured effect to its halfway point.

Records with an inconclusive call do not appear.

For this experiment, the system named is DRD oncogenic fibroblast viability, ATP luminescence. The experiment is described as follows: DRD fibroblast viability loss – cell-based, non-viral oncogenic, luminescence, dose response (AID 1934).

As for `C=C(C=O)CC1CC(O)[C@]2(C)OC3CC4OC5C[C@]6(C)O[C@]7(C)CCC8OC9C[C@]%10(C)OC%11C(C)=CC(=O)OC%11CC%10OC9C[C@@H](C)C8OC7CC6O[C@]5(C)CC5OC5C4OC3CC2O1` (stereo partly specified), the EC50 was 824 nM.
